This is an account of results in patent US4450272A, “Antiatherosclerotic 1-piperazine-thicarboxamides” (American Cyanamid Company, priority 1982, dated 1984).

Assay [1] concerns the target T1, fatty acyl CoA:cholesterol acyl transferase (ACAT) (Rattus norvegicus, UniProt O70536).
T1 construct: The supernatant, containing the microsomal fraction, served as the source of the cholesterol-esterifying enzyme; from tissue; host or cells: rat adrenals, 1000 x g supernatant containing the microsomal fraction
T1 sequence (O70536 1-545): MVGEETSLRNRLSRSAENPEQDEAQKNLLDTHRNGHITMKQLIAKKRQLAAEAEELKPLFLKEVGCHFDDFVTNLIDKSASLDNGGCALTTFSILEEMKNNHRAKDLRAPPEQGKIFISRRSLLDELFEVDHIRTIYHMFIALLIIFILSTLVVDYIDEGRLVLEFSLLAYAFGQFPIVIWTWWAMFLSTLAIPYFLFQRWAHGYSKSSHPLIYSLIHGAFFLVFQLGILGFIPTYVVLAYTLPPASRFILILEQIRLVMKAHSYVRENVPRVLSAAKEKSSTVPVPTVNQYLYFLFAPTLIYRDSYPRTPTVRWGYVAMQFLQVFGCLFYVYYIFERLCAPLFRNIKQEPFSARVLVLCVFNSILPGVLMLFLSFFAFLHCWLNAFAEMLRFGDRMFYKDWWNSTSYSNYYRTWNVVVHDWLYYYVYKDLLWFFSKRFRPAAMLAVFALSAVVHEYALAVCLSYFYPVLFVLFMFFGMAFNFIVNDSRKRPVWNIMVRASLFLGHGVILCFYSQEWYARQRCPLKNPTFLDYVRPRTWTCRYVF
The assay can be described thus: Inhibition of ACAT (fatty acyl CoA:cholesterol acyl transferase) in rat adrenal supernatant. In kind it is biochemical. The note with it: rat adrenals, final concentration 5.2 μg./ml., pH 7.4, 37° C. How it is done:
Compounds were tested for their ability to inhibit ACAT according to the following procedure:
Rat adrenals were homogenized in 0.2 M monobasic potassium phosphate buffer, pH 7.4, and centrifuged at 1000 times gravity for 15 minutes at 5° C. The supernatant, containing the microsomal fraction, served as the source of the cholesterol-esterifying enzyme, fatty acyl CoA:cholesterol acyl transferase (ACAT). A mixture comprising 50 parts of adrenal supernatant, 10 parts of albumin (BSA) (50 mg./ml.), 3 parts of test compound (final concentration 5.2 μg./ml.) and 500 parts of buffer was preincubated at 37° C. for 10 minutes. After treatment with 20 parts of oleoyl CoA (^14 C -0.4 μCi) the mixture was incubated at 37° C. for 10 minutes. A control mixture, omitting the test compound, was prepared and treated in the same manner. The lipids from the incubation mixture were extracted into an organic solvent and separated by thin-layer chromatography. The cholesterol ester fraction was counted in a scintillation counter. This procedure is a modification of that described by Hashimoto, et. al., Life Scie., 12 (Part II), 1-12 (1973).
Compounds which produce a statistically significant inhibition of the ACAT enzyme are considered to be active.

The test system of assay [2] is serum lipids (sterol, triglycerides). The assay can be described thus: Ability to lower lipid levels in mammals (serum cholesterol and triglycerides in rats, 5 days in diet). In kind it is in vivo, male rats COBS, CD, SD strain. The note with it: male rats, oral, 0.1% compound in diet, vs control; for inhibition in vivo at 0.1 % in diet: Rattus norvegicus, 120 h, read-out: % Lowering of Serum Triglycerides. How it is done:
The compounds were also tested for their ability to lower lipid levels in mammals. The compounds were administered orally admixed with diet to groups of four male rats COBS, CD, SD strain from Charles River Breeding Laboratories, Inc., Wilmington, Mass. A control group of eight rats was maintained on the diet alone; test groups were maintained on the diet plus the indicated percentage of test compound by weight. After 5 days treatment, serum cholesterol and triglyceride concentrations were determined by direct enzymatic procedures using a Centrifichem® System 400 autoanalyzer (Union Carbide Co.). Cholesterol concentrations were determined by the combined cholesterol esterase-cholesterol oxidase procedure of Roelschlau et. al., Zeit. Klin. Chem. Klin. Biochem., 12, 226 (1974). Triglycerides were determined by the combined method of lipase catalyzed hydrolysis of triglycerides to glycerol and free fatty acids [Bucolo, G. and David, H., Clin. Chem., 19, 476 (1973) and Wahlefeld, A. W., in "Methods of Enzymatic Analysis", Vol. 4, Bergmeyer, H. U., Editor, Academic Press, New York, N.Y. (1974), pp. 1831-1835] and the enzymatic oxidation of the glycerol which leads to the production of colored formazan [Stavropoulos, W. S. and Crouch, R. D., Clin. Chem., 20, No. 7, 857 (1974)]. […] Compounds which produce statistically significant lowering of either sterol or triglycerides are considered to be active.

The subject of another assay is aortic sterol content. The assay can be described thus: Ability to decrease aortic sterol content without effecting serum sterol, cholesterol-fed cockerels. Type of assay: in vivo, Day-old-cockerels. More on the design: key: Active: Compounds which produce statistically significant decreases in the aortic sterol content without having an effect on serum sterol are considered to be active. Conditions: 525 mg. test compound and 20 g. cholesterol per kg. of diet, 14 days. The procedure: The compounds were further tested for their ability to decrease aortic sterol content without effecting serum sterol.
Day-old-cockerels were placed on diets consisting of pullet starter mash supplemented with either 20 g. cholesterol (control group) or 20 g. cholesterol and 525 mg. test compound (drug-treated group) per kg. of diet.
For the control diet 20 g. of cholesterol is dissolved in 200 ml. of chloroform, mixed into one kg. of pullet starter mash and then the chloroform is removed by evaporation.
For the drug-treatment group 525 mg. of the test compound is dissolved in 100 ml. of chloroform, mixed into a diet prepared as described above and then the chloroform is evaporated.
The cockerels were housed three per cage and given water and their respective diet ad libitum for 14 days. Blood was collected by cardiac puncture and the serum was saponified [Trinder, P., Analyst, 77, 321 (1952)] and extracted and the cholesterol content determined [Zlatkis, A. et. al., J. Lab. Clin. Med., 41, 486 (1953)]. The aortae were removed, cleaned of adventitial tissue and the sterol content determined according to the above procedures. Compounds which produce statistically significant decreases in the aortic sterol content without having an effect on serum sterol are considered to be active.

As a reminder, the inhibition is the drop in the measured response relative to a control, in per cent. In assay [1], `CC(C)c1ccc(NC(=S)N2CCN(c3cnccn3)CC2)cc1` [4'-Isopropyl-4-(2-pyrazinyl)-1-piperazinethiocarboxanilide] had an inhibition at 5.2 µg/mL of 56%.
For the compound `S=C(Nc1ccccc1Cl)N1CCN(c2cnccn2)CC1` [2'-Chloro-4-(2-pyrazinyl)-1-piperazinethiocarboxanilide], in assay [2], the inhibition in vivo at 0.1 % in diet stood at 49%.
For `Fc1ccccc1NC(=S)N1CCN(c2cnccn2)CC1` [2'-Fluoro-4-(2-pyrazinyl)-1-piperazinethiocarboxanilide], the inhibition in vivo at 0.1 % in diet in assay [2] was 21%.
For `CNC(=S)N1CCN(c2cnccn2)CC1` [N-Methyl-4-(2-pyrazinyl)-1-piperazinethiocarboxamide], in assay [2], the inhibition in vivo at 0.1 % in diet was found to be 31%. In addition, the “Result (decrease of aortic sterol content without effect on serum sterol)” value in the assay with aortic sterol content is “Active”.
In the case of `S=C(Nc1ccc(Cl)cc1)N1CCN(c2cnccn2)CC1` [4'-Chloro-4-(2-pyrazinyl)-1-piperazinethiocarboxanilide], the inhibition in vivo at 0.1 % in diet in assay [2] turned out to be 49%. Also, in assay [1], at 5.2 µg/mL the inhibition was 31%.
As to `CCNC(=S)N1CCN(c2cnccn2)CC1` [N--Ethyl-4-(2-pyrazinyl)-1-piperazinethiocarboxamide], the “Result (decrease of aortic sterol content without effect on serum sterol)” value in the assay with aortic sterol content is on record as “Active”.
With `CCNC(=S)N1CCN(c2cncc(OC)n2)CC1` [N-Ethyl-4-(6-methoxy-2-pyrazinyl)-1-piperazinethiocarboxamide], the inhibition in vivo at 0.1 % in diet in assay [2] was 38%. Further, 5.2 µg/mL produced 40% inhibition in assay [1].
In turn, `CCNC(=S)N1CCN(c2ccc3ccccc3n2)CC1` [N-Ethyl-4-(2-quinolyl)-1-piperazinethiocarboxamide] displayed an inhibition at 5.2 µg/mL in assay [1] of 48%.
For `S=C(Nc1ccccc1)N1CCN(c2cnccn2)CC1` [N--Phenyl-4-(2-pyrazinyl)-1-piperazinethiocarboxamide], in assay [2], the inhibition in vivo at 0.1 % in diet was 52%. In addition, the “Result (decrease of aortic sterol content without effect on serum sterol)” value with aortic sterol content is reported as “Active”.
`S=C(Nc1c(Cl)cccc1Cl)N1CCN(c2cnccn2)CC1` [2',6'-Dichloro-4-(2-pyrazinyl)-1-piperazinethiocarboxanilide]: the inhibition in vivo at 0.1 % in diet in assay [2] was found to be 37%.
With `S=C(NC1CCCCC1)N1CCN(c2cnccn2)CC1` [N-Cyclohexyl-4-(2-pyrazinyl)-1-piperazinethiocarboxamide], the inhibition in vivo at 0.1 % in diet in assay [2] is 43%. The same compound showed an inhibition at 5.2 µg/mL in assay [1] of 31%.
Turning to `Fc1ccc(NC(=S)N2CCN(c3cnccn3)CC2)cc1` [4'-Fluoro-4-(2-pyrazinyl)-1-piperazinethiocarboxanilide], the inhibition in vivo at 0.1 % in diet in assay [2] was 37%.
With `S=C(NCCc1ccccc1)N1CCN(c2cnccn2)CC1` [N-Phenethyl-4-(2-pyrazinyl)-1-piperazinethiocarboxamide], in assay [2], the “% Lowering of Serum Sterol” value was 16%. Besides, in assay [1], the inhibition at 5.2 µg/mL amounted to 33%.
Turning to `N#Cc1ccc(NC(=S)N2CCN(c3cnccn3)CC2)cc1` [4'-Cyano-4-(2-pyrazinyl)-1-piperazinethiocarboxanilide], the inhibition in vivo at 0.1 % in diet in assay [2] is 55%. Further, the “Result (decrease of aortic sterol content without effect on serum sterol)” value with aortic sterol content is reported as “Active”.
